Patent US20040102320A1, “NATURAL HERBICIDE FOR WEED REMOVAL” (priority 2002, published 2004)

Tested on: grass, including crabgrass and other weeds
Conditions: 100% of sodium bicarbonate

**Q.** How did the killing of grass turn out when `O=C([O-])O.[Na+]` [sodium bicarbonate] was run?
**A.** would kill grass, including crabgrass and other weeds
